Assay results: US12180226B2, “Spirotricycle RIPK1 inhibitors and methods of uses thereof” (Merck Sharp & Dohme LLC, priority 2021, dated 2024)
Structures can show the parent of a compound that is named as a salt.

molecular target: RIPK1 (recombinant GST-RIPK1 kinase domain, residues 1-327) (Homo sapiens (Human), UniProt Q13546); assay: RIPK1-ADP-Glo Enzymatic Assay; format: biochemical; settings: ADP-Glo; 25 nM GST-RIPK1, 300 μM ATP; assay lower limit ~25 nM; read-out: RIPK1 V0 Ec50
Summary of the method: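 GST-tagged kinase domain (residues 1-327, Sf21-expressed), 25 nM, pre-incubated 30 min with compound at ambient temperature, then reacted 150 min with 300 μM ATP and 3 μM dephosphorylated MBP in HEPES pH 7.3 buffer. ADP measured by ADP-Glo luminescence; EC50 from ten-point titration (top 100000 nM), four-parameter fit.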

Sequence of RIPK1 (recombinant GST-RIPK1 kinase domain, residues 1-327) (Q13546 1-327): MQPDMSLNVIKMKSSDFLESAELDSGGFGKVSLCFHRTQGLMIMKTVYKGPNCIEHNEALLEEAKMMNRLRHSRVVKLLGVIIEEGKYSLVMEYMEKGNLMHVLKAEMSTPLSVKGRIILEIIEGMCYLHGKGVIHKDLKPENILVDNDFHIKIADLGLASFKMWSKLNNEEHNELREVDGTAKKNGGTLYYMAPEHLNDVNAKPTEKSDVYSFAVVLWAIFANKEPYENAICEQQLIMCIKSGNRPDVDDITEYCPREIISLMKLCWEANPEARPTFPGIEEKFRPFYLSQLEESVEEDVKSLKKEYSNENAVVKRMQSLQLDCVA

Structure (SMILES)	EC50 [nM]
O=C1N2[C@@H](CC[C@H]2c2ccccc2)OC12CCN(c1ncc(-c3nccs3)cn1)CC2 [Example 21.12, (5′S,7a′R)-5′-phenyl-1-[5-(1,3-thiazol-2-yl)pyrimidin-2-yl]tetrahydro-3′H-spiro[piperidine-4,2′-pyrrolo[2,1-b][1,3]oxazol]-3′-one]	25.2
Cc1cccc(CN2CCC3(CC2)O[C@@H]2CC[C@@H](c4cc(F)cc(F)c4)N2C3=O)c1 [Example 22.4, (5′S,7a′R)-5′-(3,5-difluorophenyl)-1-[(3-methylphenyl)methyl] tetrahydro-3′H-spiro[piperidine-4,2′-pyrrolo[2,1-b][1,3]oxazol]-3′-one]	701
O=C1N2[C@@H](CC[C@H]2c2ccccc2)OC12CCN(c1cnc(-c3ncco3)cn1)CC2 [Example 21.14, (5′S,7a′R)-1-[5-(1,3-oxazol-2-yl)pyrazin-2-yl]-5′-phenyltetrahydro-3′H-spiro[piperidine-4,2′-pyrrolo[2,1-b][1,3]oxazol]-3′-one]	57.8
CC1CN(c2cccc3ncnn23)CCC12O[C@@H]1CC[C@@H](c3ccccc3)N1C2=O (stereo partly drawn) [Example 4.245, (4R,5′S,7a′R)-3-methyl-5′-phenyl-1-([1,2,4]triazolo[1,5-a]pyridin-5-yl)tetrahydro-3′H-spiro[piperidine-4,2′-pyrrolo[2,1-b] [1,3]oxazol]-3′-one]	< 25
O=C(c1cc(F)ccn1)N1CCC2(CC1)O[C@@H]1CC[C@@H](c3cc(F)cc(F)c3)N1C2=O [Example 6.92, (5′S,7a′R)-5′-(3,5-difluorophenyl)-1-(4-fluoropyridine-2-carbonyl)tetrahydro-3′H-spiro[piperidine-4,2′-pyrrolo[2,1-b] [1,3]oxazol]-3′-one]	40.6
N#Cc1cnn2c(N3CCC4(CC3)O[C@@H]3CC[C@@H](c5ccccc5)N3C4=O)ncnc12 [Example 4.218, 4-[(5′S,7a′R)-3′-oxo-5′-phenyltetrahydro-1H,3′H-spiro[piperidine-4,2′-pyrrolo[2,1-b] [1,3]oxazol]-1-yl]pyrazolo[1,5-a] [1,3,5]triazine-8-carbonitrile]	< 25
O=C1N2[C@@H](CC[C@H]2c2ccccc2)OC12CCN(c1ccnc(-c3ccccc3)n1)CC2 [Example 11.14, (5′S,7a′R)-5′-phenyl-1-(2-phenylpyrimidin-4-yl)tetrahydro-3′H-spiro[piperidine-4,2′-pyrrolo[2,1-b][1,3]oxazol]-3′-one]	33.7
O=C(c1ccccc1)N1CCC2(CC1)O[C@@H]1CC[C@@H](c3ccc4sccc4c3)N1C2=O [Example 17.2, (5′S,7a′R)-5′-(benzo[b]thiophen-5-yl)-1-benzoyltetrahydro-3′H-spiro[piperidine-4,2′-pyrrolo[2,1-b]oxazol]-3′-one]	26.1
N#Cc1ccc(N2CCC3(CC2)O[C@@H]2CC[C@@H](c4cccc(F)c4)N2C3=O)n2nccc12 [Example 4.157, 7-[(5′S,7a′R)-5′-(3-fluorophenyl)-3′-oxotetrahydro-1H,3′H-spiro[piperidine-4,2′-pyrrolo[2,1-b] [1,3]oxazol]-1-yl]pyrazolo[1,5-a] pyridine-4-carbonitrile]	< 25
CCOC(=O)c1ccc(N2CCC3(CC2)O[C@@H]2CC[C@@H](c4ccccc4)N2C3=O)nc1 [Example 4.200, ethyl 6-[(5′S,7a′R)-3′-oxo-5′-phenyltetrahydro-1H,3′H-spiro[piperidine-4,2′-pyrrolo[2,1-b] [1,3]oxazol]-1-yl]pyridine-3-carboxylate]	52.5
O=C1N2[C@@H](CC[C@H]2c2ccccc2)OC12CCN(c1cc(-c3ccco3)ccn1)CC2 [Example 4.169, (5′S,7a′R)-1-[4-(furan-2-yl)pyridin-2-yl]-5′-phenyltetrahydro-3′H-spiro[piperidine-4,2′-pyrrolo[2,1-b] [1,3]oxazol]-3′-one]	26.4
Cc1ccc(F)c(C(=O)N2CCC3(CC2)O[C@@H]2CC[C@@H](c4ccccc4F)N2C3=O)c1 [Example 1.17, (5′S,7a′R)-1-(2-fluoro-5-methylbenzoyl)-5′-(2-fluorophenyl)tetrahydro-3′H-spiro[piperidine-4,2′-pyrrolo[2,1-b]oxazol]-3′-one]	< 25
COC(=O)c1ccc(N2CCC3(CC2)O[C@@H]2CC[C@@H](c4ccccc4)N2C3=O)nc1 [Example 4.202, methyl 6-[(5′S,7a′R)-3′-oxo-5′-phenyltetrahydro-1H,3′H-spiro[piperidine-4,2′-pyrrolo[2,1-b] [1,3]oxazol]-1-yl]pyridine-3-carboxylate]	38.5
N#Cc1ccccc1CN1CCC2(CC1)O[C@@H]1CC[C@@H](c3cc(F)cc(F)c3)N1C2=O [Example 22.3, 2-{[(5′S,7a′R)-5′-(3,5-difluorophenyl)-3′-oxotetrahydro-1H,3′H-spiro[piperidine-4,2′-pyrrolo[2,1-b][1,3]oxazol]-1-yl]methyl}benzonitrile]	807
CC1CN(c2cc(C#N)ncn2)CCC12O[C@@H]1CC[C@@H](c3ccccc3)N1C2=O (stereo partly drawn) [Example 4.237, 6-[(4R,5′S,7a′R)-3-methyl-3′-oxo-5′-phenyltetrahydro-1H,3′H-spiro[piperidine-4,2′-pyrrolo[2,1-b] [1,3]oxazol]-1-yl]pyrimidine-4-carbonitrile]	< 25
Cc1ncc(C(=O)N2CCC3(CC2)O[C@@H]2CC[C@@H](c4cc(F)cc(F)c4)N2C3=O)cn1 [Example 6.77, (5′S,7a′R)-5′-(3,5-difluorophenyl)-1-(2-methylpyrimidine-5-carbonyl)tetrahydro-3′H-spiro[piperidine-4,2′-pyrrolo[2,1-b] [1,3]oxazol]-3′-one]	572
N#Cc1ccc(N2CCC3(CC2)O[C@@H]2CC[C@@H](c4ccccc4)N2C3=O)n2ncc(C#N)c12 [Example 4.178, 7-[(5′S,7a′R)-3′-oxo-5′-phenyltetrahydro-1H,3′H-spiro[piperidine-4,2′-pyrrolo[2,1-b] [1,3]oxazol]-1-yl]pyrazolo[1,5-a] pyridine-3,4-dicarbonitrile]	< 25
O=C1N2[C@@H](CC[C@H]2c2ccccc2)OC12CCN(c1cccc3ncnn13)CC2F (single isomer, unassigned) [Example 13.18, (3[S or R], 4 [R or S], 5′S,7a′R)-1-([1,2,4]triazolo[1,5-a]pyridin-5-yl)-3-fluoro-5′-phenyltetrahydro-3′H-spiro[piperidine-4,2′-pyrrolo[2,1-b]oxazol]-3′-one, TFA salt]	< 25
N#Cc1cc(C(=O)N2CCC3(CC2)O[C@@H]2CC[C@@H](c4ccccc4)N2C3=O)ccc1F [Example 6.138, 2-fluoro-5-[(5′S,7a′R)-3′-oxo-5′-phenyl-tetrahydro-1H,3′H-spiro[piperidine-4,2′-pyrrolo[2,1-b][1,3]-oxazole]-1-carbonyl]-benzonitrile]	< 25
COc1ccc2oc(N3CCC4(CC3)O[C@@H]3CC[C@@H](c5ccccc5)N3C4=O)nc2c1 [Example 4.160, (5′S,7a′R)-1-(5-methoxy-1,3-benzoxazol-2-yl)-5′-phenyltetrahydro-3′H-spiro[piperidine-4,2′-pyrrolo[2,1-b] [1,3]oxazol]-3′-one]	76.8
Cc1ccc(F)c(C(=O)N2CCC3(CC2)O[C@@H]2CC[C@@H](c4cccc(F)c4)N2C3=O)c1 [Example 6.133, (5′S,7a′R)-1-(2-fluoro-5-methylbenzene-1-carbonyl)-5′-(3-fluoro-phenyl)tetrahydro-3′H-spiro[piperidine-4,2′-pyrrolo[2,1-b] [1,3]oxazol]-3′-one]	< 25
COc1nc(N2CCC3(CC2)O[C@@H]2CC[C@@H](c4ccccc4)N2C3=O)ncc1F [Example 11.29, (5′S,7a′R)-1-(5-fluoro-4-methoxypyrimidin-2-yl)-5′-phenyltetrahydro-3′H-spiro[piperidine-4,2′-pyrrolo[2,1-b][1,3]oxazol]-3′-one]	< 25
O=C1CCc2nc(N3CCC4(CC3)O[C@@H]3CC[C@@H](c5ccccc5)N3C4=O)ccc21 [Example 4.196, (5′S,7a′R)-1-(5-oxo-6,7-dihydro-5H-cyclopenta[b]pyridin-2-yl)-5′-phenyltetrahydro-3′H-spiro[piperidine-4,2′-pyrrolo[2,1-b] [1,3]oxazol]-3′-one]	31.7
Cc1ccc([C@@H]2CC[C@H]3OC4(CCN(C(=O)c5ccccc5)CC4)C(=O)N32)cc1 [Example 17.3, (5′S,7a′R)-1-benzoyl-5′-(p-tolyl)tetrahydro-3′H-spiro[piperidine-4,2′-pyrrolo[2,1-b]oxazol]-3′-one]	< 25
N#Cc1cccc(CN2CCC3(CC2)O[C@@H]2CC[C@@H](c4cc(F)cc(F)c4)N2C3=O)c1 [Example 22.6, 3-{[(5′S,7a′R)-5′-(3,5-difluorophenyl)-3′-oxotetrahydro-1H,3′H-spiro[piperidine-4,2′-pyrrolo[2,1-b][1,3]oxazol]-1-yl]methyl}benzonitrile]	234
Cc1ccccc1[C@@H]1CC[C@H]2OC3(CCN(C(=O)c4ccccc4)CC3)C(=O)N21 [Example 6.135, (5′S,7a′R)-1-(benzene-carbonyl)-5′-(2-meth-ylphenyl)tetrahydro-3′H-spiro[piperidine-4,2′-pyrrolo[2,1-b] [1,3]oxazol]-3′-one]	457
O=C(c1cccc(N2CCOCC2)c1)N1CCC2(CC1)O[C@@H]1CC[C@@H](c3cc(F)cc(F)c3)N1C2=O [Example 6.47, (5′S,7a′R)-5′-(3,5-difluorophenyl)-1-[3-(morpholin-4-yl)-benzene-1-carbonyl]-tetrahydro-3′H-spiro [piperidine-4,2′-pyrrolo[2,1-b][1,3]oxazol]-3′-one]	< 25
O=C(C1CCCC1)N1CCC2(CC1)O[C@@H]1CC[C@@H](c3cc(F)cc(F)c3)N1C2=O [Example 5.32, (5′S,7a′R)-1-(cyclopentane-carbonyl)-5′-(3,5-difluoro-phenyl)tetrahydro-3′H-spiro[piperidine-4,2′-pyrrolo[2,1-b]oxazol]-3′-one]	409
